Like-named read-outs stand apart in the source and are kept apart here.
Assays:
[1] = Vital signs, ECG, laboratory variables and WHO FC during switch from oral to i.v. selexipag in subjects with stable PAH; format: in vivo, human
Experimental: This was a prospective, multicenter, open-label, single-sequence, cross-over, Phase 3 study. Based on the dose of selexipag received at study entry, subjects were allocated to one of the following groups, selexipag 200-1000 μg b.i.d. or selexipag 1200-1600 μg b.i.d. See, FIG. 1. The study comprised the following periods: (ii) Treatment and observation period: The treatment and observation period included the following consecutive periods: • Period 1 included oral selexipag pre-treatment period for 1 day, in-hospital. This period started with intake of the morning dose of oral selexipag on Day 1 at Visit 2 and ended the following day, before initiation of the first infusion of i.v. selexipag. • Period 2 included i.v. selexipag treatment period for 36 hours [3 infusions], in-hospital. This period started in the morning of Day 2 at Visit 2 with the start of the first infusion of i.v. selexipag and ended in the evening of Day 3 at Visit 2 before the evening administration of oral selexipag. Administration of oral selexipag was interrupted during the i.v. selexipag treatment period. • Period 3 included oral selexipag post-treatment period for 7 to 11 day. This period started in the evening of Day 3 at Visit 2 with the administration of oral selexipag and ended 7-11 days later, at Visit 3. The endpoints analyzed for (i) Period 1, Period 2, and Period 3 and follow-up period combined (ii) Period 1 and Period 2 combined, and (iii) Period 2 and Period 3 combined included discontinuations due to prostacyclin-associated AEs, discontinuations due to any AEs, AEs and SAEs, prostacyclin-associated AEs, PAH-related AEs, change from baseline in vital signs (systolic blood pressure [SBP], diastolic blood pressure [DBP], and pulse rate) and body weight, ECG abnormalities, marked laboratory abnormalities, and change from baseline in WHO FC.

[2] = Pharmacokinetics of selexipag and ACT-333679 after oral and i.v. selexipag in subjects with stable PAH (Phase 3 switch study); format: in vivo, human; conditions: for AUC / Cmax: human, plasma, steady state; for AUC: read-out: AUCτ, ss Geom. Mean; for Cmax: read-out: Cmax, ss Geom. Mean
Experimental: This was a prospective, multicenter, open-label, single-sequence, cross-over, Phase 3 study. Based on the dose of selexipag received at study entry, subjects were allocated to one of the following groups, selexipag 200-1000 μg b.i.d. or selexipag 1200-1600 μg b.i.d. See, FIG. 1. The study comprised the following periods:
(ii) Treatment and observation period: The treatment and observation period included the following consecutive periods: • Period 1 included oral selexipag pre-treatment period for 1 day, in-hospital. This period started with intake of the morning dose of oral selexipag on Day 1 at Visit 2 and ended the following day, before initiation of the first infusion of i.v. selexipag. • Period 2 included i.v. selexipag treatment period for 36 hours [3 infusions], in-hospital. This period started in the morning of Day 2 at Visit 2 with the start of the first infusion of i.v. selexipag and ended in the evening of Day 3 at Visit 2 before the evening administration of oral selexipag. Administration of oral selexipag was interrupted during the i.v. selexipag treatment period. • Period 3 included oral selexipag post-treatment period for 7 to 11 day. This period started in the evening of Day 3 at Visit 2 with the administration of oral selexipag and ended 7-11 days later, at Visit 3.
Selexipag was provided as a dry powder to be reconstituted as an injectable solution for i.v. administration. Before administration, selexipag dry powder was to be reconstituted and diluted with sterile 0.9% NaCl solution. Each subject received an i.v. selexipag dose that corresponded to the subject's individual stable dose of oral selexipag. […] See, Table 4.
The intravenous infusion took place over a 87-minute period (2 infusions on Day 2 and 1 infusion on Day 3)
The following PK endpoints were analyzed for selexipag and its active metabolite, ACT-333679, after oral selexipag in Period 1 and after i.v. selexipag administration in Period 2. See, FIG. 2. • The area under the plasma-concentration time curve (AUC) during a dose interval at steady state (AUCτ, ss). • The maximum plasma concentration at steady state (Cmax, ss). • The time to reach maximum plasma concentration at steady state (tmax, ss). • Trough plasma concentration at steady state (Ctrough, ss).

[3] = selexipag versus placebo; cited from earlier work
[4] = Period 1 (oral selexipag), total, N = 20
[5] = Period 2 (iv selexipag), total, N = 20
[6] = Period 2, high dose cohort (1200-1600 μg), N = 12
[7] = Period 2, low dose cohort (200-1000 μg), N = 8
[8] = Period 3 (oral selexipag) + Follow-up, total, N = 20

CC(C)N(CCCCOCC(=O)NS(C)(=O)=O)c1cnc(-c2ccccc2)c(-c2ccccc2)n1 [selexipag, 2-{4-[(5,6-diphenylpyrazin-2-yl)(propan-2-yl)amino]butoxy}-N-(methanesulfonyl)acetamide]
Incidence of DBP < 50 (mmHg) [1, 4]: 0 n (%)
Incidence of DBP decrease from baseline > 20 (mmHg) [1, 4]: 1 (5.0) n (%)
Incidence of DBP ≥ 100 (mmHg) [1, 4]: 0 n (%)
Incidence of SBP < 90 (mmHg) [1, 4]: 0 n (%)
Incidence of SBP decrease from baseline > 40 (mmHg) [1, 4]: 0 n (%)
Incidence of SBP ≥ 160 (mmHg) [1, 4]: 0 n (%)
subjects with QTcF prolongation to >450 ms ([1]; Period 2): 3 subjects
subjects with QTcF prolongation to >480 ms ([1]; Period 2): 4 subjects
Incidence of DBP < 50 (mmHg) [1, 5]: 5 n (%)
Incidence of DBP decrease from baseline > 20 (mmHg) [1, 5]: 3 n (%)
Incidence of DBP ≥ 100 (mmHg) [1, 5]: 0 n (%)
Incidence of SBP < 90 (mmHg) [1, 5]: 2 n (%)
Incidence of SBP decrease from baseline > 40 (mmHg) [1, 5]: 2 n (%)
Incidence of SBP ≥ 160 (mmHg) [1, 5]: 1 n (%)
mean change from pre- to post-infusion in heart rate ([1]; Period 2, infusion 1): 2.1 bpm
mean change from pre- to post-infusion in heart rate ([1]; Period 2, infusion 2): 0.1 bpm
mean change from pre- to post-infusion in heart rate ([1]; Period 2, infusion 3): 3.5 bpm
Incidence of DBP < 50 (mmHg) [1, 6]: 3 n (%)
Incidence of DBP decrease from baseline > 20 (mmHg) [1, 6]: 2 n (%)
Incidence of DBP ≥ 100 (mmHg) [1, 6]: 0 n (%)
Incidence of SBP < 90 (mmHg) [1, 6]: 1 n (%)
Incidence of SBP decrease from baseline > 40 (mmHg) [1, 6]: 1 n (%)
Incidence of SBP ≥ 160 (mmHg) [1, 6]: 1 n (%)
Incidence of DBP < 50 (mmHg) [1, 7]: 2 (25.0) n (%)
Incidence of DBP decrease from baseline > 20 (mmHg) [1, 7]: 1 (12.5) n (%)
Incidence of DBP ≥ 100 (mmHg) [1, 7]: 0 n (%)
Incidence of SBP < 90 (mmHg) [1, 7]: 1 (12.5) n (%)
Incidence of SBP decrease from baseline > 40 (mmHg) [1, 7]: 1 (12.5) n (%)
Incidence of SBP ≥ 160 (mmHg) [1, 7]: 0 n (%)
Incidence of DBP < 50 (mmHg) [1, 8]: 0 n (%)
Incidence of DBP decrease from baseline > 20 (mmHg) [1, 8]: 2 (10.0) n (%)
Incidence of DBP ≥ 100 (mmHg) [1, 8]: 0 n (%)
Incidence of SBP < 90 (mmHg) [1, 8]: 0 n (%)
Incidence of SBP decrease from baseline > 40 (mmHg) [1, 8]: 0 n (%)
Incidence of SBP ≥ 160 (mmHg) [1, 8]: 0 n (%)
subjects (of the 7 with QTcF prolongation in Period 2) who already had QTcF prolongation to >450 ms in Period 1 ([1]; Visit 2 Day 2 prior to the start of i.v. infusion): 6
AE of hypotension ([1]; any subject): no AE of hypotension
changes in systolic blood pressure of >40 mmHg ([1]; any subject): No changes
hemoglobin, mean change from baseline ([1]; at Visit 3 (Day 12±2 days)): 1.2 g/L
hemoglobin, mean change from baseline ([1]; baseline (129.4 g/L) to Visit 2 Day 3): -5.7 g/L
changes in WHO FC ([1]; during the study, any subject): No changes
changes from baseline in other hematology and clinical chemistry variables ([1]; human, in vivo): unremarkable
tmax, ss between the i.v. and oral selexipag periods ([2]; Period 2 vs Period 1): comparable
slope of dose proportional increase in exposure ([2]; after i.v. selexipag, 450-1800 μg b.i.d. dose range): 0.798
AUC ([2]; iv, Period 2 (i.v. selexipag)): 18.8 ng·h/mL
Cmax ([2]; iv, Period 2 (i.v. selexipag)): 7.8 ng/mL
AUC ([2]; Period 1 (oral selexipag)): 8.7 ng·h/mL
Cmax ([2]; Period 1 (oral selexipag)): 3.9 ng/mL
dose-normalized geometric mean ratio (i.v./oral selexipag) for AUCτ, ss (90% CI) ([2]; i.v. to oral dose ratio 1.125): 2.13 (1.67, 2.70)
dose-normalized geometric mean ratio (i.v./oral selexipag) for Cmax, ss (90% CI) ([2]; i.v. to oral dose ratio 1.125): 1.98 (1.62, 2.43)
risk of the primary composite end point of death or a complication related to pulmonary arterial hypertension [3]: significantly lower

— patent US20220323437A1, “METHODS FOR TREATING PULMONARY ARTERIAL HYPERTENSION” (ACTELION PHARMACEUTICALS LTD, priority 2019, published 2022)
